Experimental data reported in patent publication US8389551B2, “Optical enantiomers of phenyramidol and process for chiral synthesis” (Fermenta Biotech (UK) Limited, priority 2006, dated 2013).
Marks after values point to notes of the source that are not given here.

Tests used:
Format in all cases: in vivo
[1] = test system: Wistar rats; test: Anti-inflammatory activity, carrageenin induced paw edema (plethysmometer); conditions: for % Increase in Paw volume 1 HR: 1 HR after carrageenan, oral, racemate 2400 mg, isomers 1200 mg human daily dose extrapolated to rats, Indomethacin 15 mg/kg, diclofenac 10 mg/kg; for % Increase in Paw volume 2 HR: 2 HR after carrageenan; for % Increase in Paw volume 2 HR / % Increase in Paw volume 3 HR / % Increase in Paw volume 5 HR: doses as E46; for % Increase in Paw volume 3 HR: 3 HR after carrageenan; for % Increase in Paw volume 5 HR: 5 HR after carrageenan
Protocol: Further, the investigations were carried out to determine the anti-inflammatory activities of the molecule of the present invention. Wistar rats weighing between 160-210 gm were divided into 6 groups of 10 animals each. Group I served as control (Placebo) and receive CMC and Group II & III received anti-inflammatory control (positive control) (Diclofenac & Indomethacin respectively). Group IV to VI were treated orally with test formulations. After 15 min. of drug administration, inflammation was induced by injecting 0.1 ml of freshly prepared 1% carrageenin (in normal saline) into the left hind paw of the rat. The paw volume of the […] was measured by measuring the displace fluid in other hand of plethysmometer.
Indomethacin (15 mg/kg and declofenac (10 mg/kg) was used as reference product. Percent increased in rat paw edema was measured and compare to normal control at each time intervals.
The antiinflammatory activity was assessed plethysmographically using following time points after the administration of carrageenan, 1 hr, 2 hrs, 3 hrs and 5 hrs.

[2] = test system: rats; test: Anti-arthritic activity, thickness of joint of right paw after injection of formalin; conditions: for Thickness of Joint (in cm) 0 hr: 0 hr (initial); for Thickness of Joint (in cm) 0 hr / Thickness of Joint (in cm) 2 hr: Phen 3 2400 mg, Phen 2 and Phen 4 1200 mg human daily dose extrapolated to rats, Diclofenac sodium 2 mg/Kg; for Thickness of Joint (in cm) 2 hr: 2 hr after formalin; for Thickness of Joint (in cm) 4 hr: 4 hr after formalin; for Thickness of Joint (in cm) 4 hr / Thickness of Joint (in cm) 8 hr / Thickness of Joint (in cm) 24 hr / Thickness of Joint (in cm) 48 hr / Thickness of Joint (in cm) 72 hr: doses as E38; for Thickness of Joint (in cm) 8 hr: 8 hr after formalin; for Thickness of Joint (in cm) 24 hr: 24 hr after formalin; for Thickness of Joint (in cm) 48 hr: 48 hr after formalin; for Thickness of Joint (in cm) 72 hr: 72 hr after formalin
Protocol: The anti-arthritic activity was assessed using following time points after the injection of formalin 2 hrs, 4 hrs, 8 hrs, 24 hrs, 48 hrs and 72 hrs. The control group (group 1) received 1% gum acacia. The Groups 2, 3, and 4 received the formulations viz: Phen 2, Phen 3 and Phen 4 respectively. Diclofenac was used as positive control and given to group 5. Human daily dose of 2400 mg (800 mg×3 times) was extrapolated to rats for 5 (racemate) Phen 3 and human daily dose of 1200 mg (400 mg×3 times) was extrapolated to rats for (isomer 1) Phen 2 and (isomer 2) Phen 4. Diclofenac sodium 2 mg/Kg was used as reference product.
Initial or 0 hr thickness of the joint of right paw of each animal was recorded. The thickness of the joint was measured using Vernier calipers at different time intervals after the injection of formalin. These efficacy variables were assessed at six time points 2 hrs, 4 hrs, 8 hrs, 24 hrs, 48 hrs and 72 hrs for each and every animal.

[3] = test system: mice; test: Central analgesic activity, tail flick analgesiometer
[4] = test system: swiss albino mice; test: Analgesic activity, acetic acid induced writhing method
Protocol: The objective of the study was to evaluate the analgesic activity of the tested formulations of the compounds of the present invention. The test was conducted in Swiss albino mice using acetic acid induced writhing method. A total of 78 pre-screened mice (showing writhing response within 10 minutes*) were divided into 6 groups of 13 animals (6 males+7 females) each. The animals showing no writhing response within 10 mins were excluded. Diclofenac and pentazocine were used as positive controls. The formulations were given orally to the different groups of animals and the number of writhes counted for a period of 15 minutes, after the onset of writhes. If the onset of writhes occurred 30 after 10 minutes the number of writhes was recorded as V. The time of onset of writhes was recorded for each animal.
The control group received 1% gum acacia. The Groups 2, 3, and 4 received the formulations viz: Phen 2; Phen 3 and Phen 4 respectively. Diclofenac and pentazocine were used as positive control and given to groups 5 and 6 respectively. Diclofenac, a potent analgesic & anti-inflammatory agent; and 5 pentazocine an opoid analgesic were selected for comparative evaluation of test formulations. Both these drugs were administered to different groups of animals at the dose of 2 mg/kg. The group 1 (Phen 1) served as—Ve Control group in the study. Phen 5 (Diclofenac—2 mg/kg) and Positive Control: Phen 6 (Pentazocine 2 mg/kg) served as positive controls.
Human daily dose of 2400 mg (800 mg×3 times) was extrapolated to mice for Phen3 and human daily dose of 1200 mg (400 mg×3 times) was extrapolated to mice for Phen2 and Phen 4. The numbers of writhes observed are given below in Table 4 for each formulation.
Further, the evaluation of analgesic activity was carried out using variable dosage forms with different groups. A total of 100 animals (50 males+50 females) were selected randomly and distributed into ten main groups with 10 animals per group (5 M+5 F). Human daily dose of 2400 mg (800 mg×3 times) was extrapolated to mice for Phen 3 (Phenyramidol Racemic (Hydrochloride) and human daily dose of 1200 mg (400 mg×3 times), 1800 mg (400 mg×4.5 times), 2000 mg (400 mg×5 times) & 2400 mg (400 mg×6 times) was extrapolated to mice for Phen2 and Phen4 groups.
The control group 1 received 1% gum acacia and served as negative control group. Groups 2, 3, 4 & 5 received the formulation Phen2. Groups 6, 7, 8 & 9 received the formulation Phen 4 (Isomer 2) & Group 10 received the formulation Phen 3 (Racemic).
Further, one more experiment was done with phenyramidol hydrochloride to evaluate the analgesic activity at lesser dosage levels using acetic acid induced method. A total of 50 animals (25 males+25 females) were selected and randomly distributed into five main groups with 10 animals per group (5 M+5 F). 5 Human daily dose of 600 mg (400×1.5 times) & 1200 mg (800 mg×1.5 times) was extrapolated to mice for Phen 3 (Racemic) and human daily dose of 600 mg (400 mg×1.5 times) was extrapolated to mice for (−) Phenyramidol Hydrochloride & (+) Phenyramidol Hydrochloride and the results are discussed in Table 6.

[5] = 1 hr. after dose, human daily dose 2400 mg or 1200 mg extrapolated to mice, cut-off 10-12 seconds
[6] = 4 hr. after dose, human daily dose 2400 mg or 1200 mg extrapolated to mice, cut-off 10-12 seconds
[7] = Table 4, oral, writhes counted 15 minutes, Phen3 human daily dose 2400 mg, Phen2 and Phen 4 1200 mg extrapolated to mice, Diclofenac and Pentazocine 2 mg/kg
[8] = Table 6, dose 600 mg (human daily dose extrapolated to mice), mean ± SD, n = 10
[9] = experiment of Table 6, lesser dosage levels

SMILES | % Increase in Paw volume 1 HR [1] [%] | % Increase in Paw volume 2 HR [1] [%] | % Increase in Paw volume 3 HR [1] [%] | % Increase in Paw volume 5 HR [1] [%] | Thickness of Joint (in cm) 0 hr [2] [cm] | Thickness of Joint (in cm) 2 hr [2] [cm] | Thickness of Joint (in cm) 4 hr [2] [cm] | Thickness of Joint (in cm) 8 hr [2] [cm] | Thickness of Joint (in cm) 24 hr [2] [cm] | Thickness of Joint (in cm) 48 hr [2] [cm] | Thickness of Joint (in cm) 72 hr [2] [cm] | Tail Flick Reaction Time (Sec.) 1 hr. [3, 5] [s] | Tail Flick Reaction Time (Sec.) 4 hr. [3, 6] [s] | Average no. of writhes [4, 7] | Average no. of writhes [4, 8] | analgesic activity by decrease in the number of writhes induced by acetic acid [4, 9] | other results
O=C(O)Cc1ccccc1Nc1c(Cl)cccc1Cl [Diclofenac, reference compound] | 15.77 ± 13.94 | 33.39 ± 7.35 | 43.03 ± 15.41 | 30.44 ± 9.52 | 0.49 ± 0.04 | 0.56 ± 0.04 | 0.56 ± 0.04 | 0.62 ± 0.03 | 0.54 ± 0.05 | 0.53 ± 0.05 | 0.51 ± 0.03 | 3.41 ± 1.421 | 2.48 ± 0.654 | 4.08 ± 6.32* | – | – | difference from normal control in thickness of the joint ([2]; at 2 hr, One Way ANOVA followed by Dunnett's Test): significant decrease in the thickness of the joint
CC(C)=CCN1CCC2(C)c3cc(O)ccc3CC1C2C (stereo not shown) [Pentazocine] | – | – | – | – | – | – | – | – | – | – | – | – | – | 10.62 ± 9.47* | – | – | Tail Flick Reaction Time (Sec.) 1 hr. ([3]; mouse, in vivo): 3.0 ± 0.7055 s; Tail Flick Reaction Time (Sec.) 4 hr. ([3]; mouse, in vivo): 3.0 ± 0.7055 s
OC(CNc1ccccn1)c1ccccc1 (racemic) [Phen 3, 2-(β-hydroxyphenethylamino) pyridine, reference compound] | 24.15 ± 7.27 | 44.73 ± 6.56 | 61.40 ± 18.21 | 47.13 ± 19.14 | 0.48 ± 0.04 | 0.59 ± 0.03 | 0.59 ± 0.04 | 0.62 ± 0.06 | 0.52 ± 0.05 | 0.54 ± 0.05 | 0.55 ± 0.05 | 4.86 ± 3.023 | 5.055 ± 2.735 | 3.54 ± 3.95* | 5.90 ± 6.14* | significant analgesic activity | analgesic activity (tail flick latency compared to control) ([3]; at 4 hr after dose administration): significant analgesic activity; Average no. of writhes ([4]; Table 5, dose 2400 mg (human daily dose extrapolated to mice), mean ± SD, n = 10): 4.20 ± 3.77*; Average no. of writhes ([4]; Table 6, dose 1200 mg (human daily dose extrapolated to mice), mean ± SD, n = 10): 1.50 ± 2.59*; analgesic activity by decrease in the number of writhes induced by acetic acid ([4]; experiment of Table 4): significant analgesic activity; analgesic activity by decrease in the number of writhes induced by acetic acid ([4]; experiment of Table 5 (variable doses)): significant analgesic activity
COc1ccc2c(c1)c(CC(=O)O)c(C)n2C(=O)c1ccc(Cl)cc1 [Indomethacin] | 18.58 ± 11.38 | 31.27 ± 4.75 | 41.42 ± 12.54 | 28.86 ± 8.22 | – | – | – | – | – | – | – | – | – | – | – | – | –
Cl.O[C@@H](CNc1ccccn1)c1ccccc1 [(−) Phenyramidol Hydrochloride, (R)-Phenyramidol Hydrochloride Salt] | – | – | – | – | – | – | – | – | – | – | – | – | – | – | 3.20 ± 4.16* | significant analgesic activity | analgesic activity (summary statement) ([4]; confirmed by an acetic acid induced writhing method): enhanced analgesic activity
